Test results published in US12552834B2, “Selective MENA binding peptides” (MASSACHUSETTS INSTITUTE OF TECHNOLOGY, priority 2021, dated 2026).

Key:
ENAH EVH1 domain = molecular target: T1, ENAH EVH1 domain (Homo sapiens, UniProt Q8N8S7); assay: Biolayer interferometry (BLI), SUMO-peptide fusions binding monomeric ENAH EVH1 domain WT
T1 construct: places a 6×-His and TEV cleavage tag N-terminal to the EVH1 domain; 6×-His + TEV cleavage site (N, cleaved yes); made in house; host or cells: E. coli Rosetta2(DE3)
Procedure: All BLI experiments were performed with 2 replicates on an Octet Red96 instrument (ForteBio). […] The loaded tips were immersed in a solution of ENAH EVH1 domain at a relevant dilution series in BLI buffer at an orbital shake speed of 1000 rpm and run until the binding signal plateaued. ENAH-bound tips were subsequently placed into BLI buffer only for dissociation and run until the binding signal plateaued. KD values were obtained through steady state analysis. […] The association phases were then fit to a one-phase binding model in Prism and the equilibrium steady-state binding signal values from that fit were plotted against ENAH concentration and fit to a single-site specific binding model in Prism to obtain dissociation constants. Errors reported are the standard deviation of two replicates.
Monomeric ENAH, EVL, or VASP EVH1 domains for use in BLI and ITC experiments, or ENAH EVH1-peptide fusions for crystallography was cloned into a pMCSG7 vector (gift from Frank Gertler, MIT), which places a 6×-His and TEV cleavage tag N-terminal to the EVH1 domain. These constructs were transformed into Rosetta2(DE3) cells and grown in 2×YT media supplemented with 100 μg/mL ampicillin. Cells were grown while shaking at 37° C. to an O.D. 600 of 0.5-0.7, and then cooled on ice for at least 20 minutes. They were then induced with 0.5 mM IPTG and grown while shaking at 18° C. overnight. Induced cultures were resuspended in 25 mL of wash buffer (20 mM Hepes pH 7.6, 500 mM NaCl, 20 mM imidazole) and frozen at −80° C. overnight. The next day, cultures were sonicated, spun down, and applied to Ni-NTA acid agarose resin equilibrated with wash buffer, and washed as described above. Samples were eluted in 10 mL elution buffer (20 mM Hepes pH 7.6, 500 mM NaCl, […]). TEV protease was added to the elution at a ratio of 1 mg TEV:50 mg tagged protein along with 1 mM DTT. This mixture was dialyzed against TEV cleavage buffer (50 mM Hepes pH 8.0, 300 mM NaCl, 5 mM DTT, 1 mM EDTA) at 4° C. overnight and then applied over Ni-NTA acid agarose resin equilibrated with wash buffer. The column was washed with 2×8 mL of wash buffer, and the resulting flow-through and washes were pooled, concentrated, and applied to an S75 26/60 column equilibrated in gel filtration buffer (20 mM Hepes pH 7.6, 150 mM NaCl, 1 mM DTT, 1% glycerol). Purity was verified by SDS-PAGE and combined fractions were concentrated and flash frozen at −80° C.
Rosetta2(DE3) cells (Novagen) were transformed with pDW363 vector encoding 6×-His-SUMO-peptide fusions and grown in 20 mL of LB+100 μg/mL Ampicillin+0.050 mM D-(+)-Biotin dissolved in DMSO for in vivo biotinylation. Cells were grown to an OD of 0.5-0.7 with 1 mM IPTG and induced for 4-6 hours at 37° C. Pellets were spun down and frozen and −80° C. for at least 2 hours. These pellets were then thawed and resuspended in B-PER reagent (ThermoFisher) at 4 mL/gram of pellet with 0.2 mM PMSF. This suspension was shaken at 25° C. for 10-15 minutes, and then spun down at 15,000 g for 10 minutes. The supernatant was applied to 250 μL of Ni-NTA acid agarose resin equilibrated in 20 mM Tris pH 8.0, 500 mM NaCl, 20 mM Imidazole (Buffer A), and then washed 3 times with 1 mL of this buffer. Peptides were eluted in 1.8 mL of 20 mM Tris pH 8.0, 500 mM NaCl, 300 mM imidazole to use in BLI assays.

VASP or EVL EVH1 domains = assay: BLI, paralog selectivity: ENAH versus VASP or EVL EVH1 domains; format: binding
Procedure: Next, we examined whether residues flanking FP4 (SEQ ID NO:46) SLiMs impact paralog specificity.
All BLI experiments were performed with 2 replicates on an Octet Red96 instrument (ForteBio). Biotinylated, 6×-His-Sumo-peptide fusions purified in small scale were diluted into BLI buffer (PBS pH 7.4, 1% BSA, 0.1% Tween-20, 1 mM DTT) and immobilized onto streptavidin-coated tips (ForteBio) until loading reached a response level between 0.5-0.6 nm. The loaded tips were immersed in a solution of ENAH EVH1 domain at a relevant dilution series in BLI buffer at an orbital shake speed of 1000 rpm and run until the binding signal plateaued. ENAH-bound tips were subsequently placed into BLI buffer only for dissociation and run until the binding signal plateaued. KD values were obtained through steady state analysis. Briefly, the data were corrected for background by subtracting the signal obtained when doing the same experiment using a biotinylated, 6×-His Sumo instead of an immobilized ENAH-binding peptide. The association phases were then fit to a one-phase binding model in Prism and the equilibrium steady-state binding signal values from that fit were plotted against ENAH concentration and fit to a single-site specific binding model in Prism to obtain dissociation constants. Errors reported are the standard deviation of two replicates. […]

[1] = tested on: EVL Y63C, I26A and VASP W89Y, L15V; assay: BLI, binding to EVL and VASP hydrophobic core mutants

T1 sequence (Q8N8S7 with tags, fused parts or gaps): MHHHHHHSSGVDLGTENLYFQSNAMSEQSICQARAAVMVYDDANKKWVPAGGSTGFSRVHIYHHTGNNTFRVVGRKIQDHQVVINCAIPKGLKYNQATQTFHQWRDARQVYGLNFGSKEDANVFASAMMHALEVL

| SMILES | tighter binding than PCARE B (ENAH EVH1 domain) [fold] | slower dissociation than dual-motif peptide LPP (ENAH EVH1 domain; BLI off-rate) [fold] | preference / selectivity for ENAH over VASP or EVL EVH1 domains (VASP or EVL EVH1 domains) | binding to EVL Y63C, I26A and VASP W89Y, L15V, in words [1] |
| --- | --- | --- | --- | --- |
| CSCC[C@H](NC(=O)[C@H](CC(C)C)NC(=O)[C@@H](NC(=O)[C@H](CCC(=O)O)NC(=O)[C@H](CCSC)NC(=O)[C@@H]1CCCN1C(=O)[C@@H]1CCCN1C(=O)[C@@H]1CCCN1C(=O)[C@@H]1CCCN1C(=O)[C@H](CC(C)C)NC(=O)[C@H](Cc1c[nH]cn1)NC(=O)[C@H](CCC(=O)O)NC(=O)[C@H](CC(C)C)NC(=O)[C@@H](N)CC(N)=O)C(C)C)C(=O)N[C@@H](CC(=O)O)C(=O)N[C@@H](CCCCN)C(=O)N[C@@H](CO)C(=O)N[C@@H](Cc1ccccc1)C(=O)N[C@@H](C)C(=O)N[C@@H](CO)C(=O)N[C@@H](CC(C)C)C(=O)N[C@@H](CCC(=O)O)C(=O)N[C@@H](CO)C(=O)NCC(=O)N[C@@H](CO)C(=O)NCC(=O)N[C@@H](CO)C(=O)N1CCC[C@H]1C(=O)N1CCC[C@H]1C(=O)N1CCC[C@H]1C(=O)N1CCC[C@H]1C(=O)N1CCC[C@H]1C(=O)N[C@@H](Cc1ccccc1)C(=O)O [PCARE-Dual] | ~7 | ~100 | 400-600 fold | – |
| CSCC[C@H](NC(=O)[C@H](CC(C)C)NC(=O)[C@@H](NC(=O)[C@H](CCC(=O)O)NC(=O)[C@H](CCSC)NC(=O)[C@@H]1CCCN1C(=O)[C@@H]1CCCN1C(=O)[C@@H]1CCCN1C(=O)[C@@H]1CCCN1C(=O)[C@H](CC(C)C)NC(=O)[C@H](Cc1c[nH]cn1)NC(=O)[C@H](CCC(=O)O)NC(=O)[C@H](CC(C)C)NC(=O)[C@@H](N)CC(N)=O)C(C)C)C(=O)N[C@@H](CC(=O)O)C(=O)N[C@@H](CCCCN)C(=O)N[C@@H](CO)C(=O)N[C@@H](Cc1ccccc1)C(=O)N[C@@H](C)C(=O)N[C@@H](CO)C(=O)N[C@@H](CC(C)C)C(=O)N[C@@H](CCC(=O)O)C(=O)N[C@@H](CO)C(=O)O [PCARE B] | – | – | – | not sufficient to confer high affinity of binding |
